Reference: US20240101527A1, “QUINOLONE CARBOXYLIC DERIVATIVES” (TAIGEN BIOTECHNOLOGY CO., LTD., priority 2019, published 2024)
Converted amounts (≈) assume the structure as drawn.

Columns and labels:
Assay in all cases: MIC determination, microdilution method (CLSI)
Assay type in all cases: cell-based
[1] = system: Streptococcus pneumoniae ATCC 49619; conditions: for MIC: Streptococcus pneumoniae, ATCC49619, Gram(+), 24 h at 37° C., read-out: MIC Sp49619
Experimental: (§1) The MICs of compounds against all bacterial strains were determined using the microdilution method according to the Clinical and Laboratory Standards Institute guidelines. Bacteria from two or three colonies were picked from freshly streaked culture plates and incubated in culture broth for 8 h. The bacterial culture was then diluted with double-concentrated culture broth to a final concentration of 5×10^5 colony-forming unit (CFU)/mL. Testing compounds were prepared by diluting the stock solution with dimethyl sulfoxide (DMSO). The diluted bacterial suspension was added to an equal volume of a drug solution in a single microwell and incubated for 24 h at 37° C. The minimum concentration in the microwells with no visible bacterial growth was defined as the MIC. All MIC determinations were repeated twice on different days. The MIC of Compounds 1 to 15 against gram(+) and gram(−) bacteria are shown as follows: […]

[2] = system: Pseudomonas aeruginosa ATCC 27853; conditions: for MIC: Pseudomonas aeruginosa, ATCC27853, Gram(−), 24 h at 37° C., read-out: MIC Pa27853
Experimental: as §1

[3] = system: Staphylococcus aureus ATCC 29213; conditions: for MIC: Staphylococcus aureus, ATCC29213, Gram(+), 24 h at 37° C., read-out: MIC Sa29213
Experimental: as §1

[4] = system: Pseudomonas aeruginosa K2376; conditions: for MIC: Pseudomonas aeruginosa, K2376, Gram(−), 24 h at 37° C., read-out: MIC PaK2376
Experimental: as §1

[5] = MIC of comparative compound / MIC of Compound 2
[6] = MIC of comparative compound / MIC of Compound 7
[7] = MIC of comparative compound / MIC of Compound 1
[8] = MIC of comparative compound / MIC of Compound 11
[9] = MIC of comparative compound / MIC of Compound 6
[10] = MIC of comparative compound / MIC of Compound 8

Row | Structure (SMILES) | MIC [1] [µg/mL] | MIC [2] [µg/mL] | MIC [3] [µg/mL] | MIC [4] [µg/mL] | further results
1 | COc1c(N2CC[C@H](N)[C@@H](F)C2)ccc2c(=O)c(C(=O)O)cn([C@@H]3C[C@@H]3F)c12 [Compound 14] | 0.125 (≈ 0.318 µM) | 2 (≈ 5.08 µM) | 0.063 (≈ 0.16 µM) | 2 (≈ 5.08 µM) | 
2 | CCC1CCN(c2ccc3c(=O)c(C(=O)O)cn(CC(F)(F)F)c3c2OC)CC1N (stereo not shown) [B2, reference compound] |  |  |  |  | MIC difference (folds) Sp49619 [1, 5]: 4.0 folds; MIC difference (folds) Pa27853 [2, 5]: 16.0 folds; MIC difference (folds) Sa29213 [3, 5]: 1.0 folds; MIC difference (folds) PaK2376 [4, 5]: 4.0 folds
3 | COc1c(N2CC[C@@H](C(F)(F)F)[C@H](N)C2)ccc2c(=O)c(C(=O)O)cn([C@@H]3C[C@@H]3F)c12 [Compound 4] | 0.031 (≈ 0.0699 µM) | 4 (≈ 9.02 µM) | 0.031 (≈ 0.0699 µM) | 4 (≈ 9.02 µM) | 
4 | COc1c(N2C[C@@H](N)C[C@H](F)C2)ccc2c(=O)c(C(=O)O)cn([C@@H]3C[C@@H]3F)c12 [Compound 13] | 0.031 (≈ 0.0788 µM) | 2 (≈ 5.08 µM) | 0.063 (≈ 0.16 µM) | 16 (≈ 40.7 µM) | 
5 | COc1c(N2CCC(C)C(N)C2)ccc2c(=O)c(C(=O)O)cn(C3CC3F)c12 (stereo not shown) [Compound 1, 7-(3-Amino-4-methyl-piperidin-1-yl)-1-(2-fluoro-cyclopropyl)-8-methoxy-4-oxo-1,4-dihydro-quinoline-3-carboxylic acid] | 0.031 (≈ 0.0796 µM) | 0.25 (≈ 0.642 µM) | 0.031 (≈ 0.0796 µM) | 1 (≈ 2.57 µM) | 
6 | CC1CCN(c2ccc3c(=O)c(C(=O)O)cn(C4CC4)c3c2Cl)CC1N (stereo not shown) [D1, reference compound] |  |  |  |  | MIC difference (folds) Sp49619 [1, 6]: 1.0 folds; MIC difference (folds) Pa27853 [2, 6]: 2.0 folds; MIC difference (folds) Sa29213 [3, 6]: 1.0 folds; MIC difference (folds) PaK2376 [4, 6]: 4.0 folds
7 | COc1c(N2CC[C@@H](F)[C@H](N)C2)ccc2c(=O)c(C(=O)O)cn([C@@H]3C[C@@H]3F)c12 [Compound 5] | 0.063 (≈ 0.16 µM) | 4 (≈ 10.2 µM) | 0.063 (≈ 0.16 µM) | 16 (≈ 40.7 µM) | 
8 | C[C@@H]1CCN(c2ccc3c(=O)c(C(=O)O)cn([C@@H]4C[C@@H]4F)c3c2Cl)C[C@H]1N [Compound 7] | 0.031 (≈ 0.0787 µM) | 2 (≈ 5.08 µM) | 0.031 (≈ 0.0787 µM) | 2 (≈ 5.08 µM) | 
9 | CC[C@@H]1CCN(c2ccc3c(=O)c(C(=O)O)cn([C@@H]4C[C@@H]4F)c3c2Cl)C[C@H]1N [Compound 8] | 0.008 (≈ 0.0196 µM) | 0.125 (≈ 0.306 µM) | 0.031 (≈ 0.076 µM) | 0.5 (≈ 1.23 µM) | 
10 | CCC1CCN(c2ccc3c(=O)c(C(=O)O)cn(C4CC4)c3c2OC)CC1N (stereo not shown) [B1, reference compound] |  |  |  |  | MIC difference (folds) Sp49619 [1, 5]: 1.0 folds; MIC difference (folds) Pa27853 [2, 5]: 2.0 folds; MIC difference (folds) Sa29213 [3, 5]: 8.1 folds; MIC difference (folds) PaK2376 [4, 5]: 2.0 folds
11 | CC[C@@H]1CCN(c2ccc3c(=O)c(C(=O)O)cn([C@@H]4C[C@@H]4F)c3c2OC)C[C@H]1N [Compound 2] | 0.031 (≈ 0.0768 µM) | 0.5 (≈ 1.24 µM) | 0.031 (≈ 0.0768 µM) | 2 (≈ 4.96 µM) | 
12 | COc1c(N2CCC(C)C(N)C2)ccc2c(=O)c(C(=O)O)cn(C3CC3)c12 (stereo not shown) [A2, reference compound] |  |  |  |  | MIC difference (folds) Sp49619 [1, 7]: 4.0 folds; MIC difference (folds) Pa27853 [2, 7]: 32.0 folds; MIC difference (folds) Sa29213 [3, 7]: 4.0 folds; MIC difference (folds) PaK2376 [4, 7]: 32.0 folds
13 | CC1CC(N)CN(c2ccc3c(=O)c(C(=O)O)cn(CC(F)F)c3c2Cl)C1 (stereo not shown) [F2, reference compound] |  |  |  |  | MIC difference (folds) Sp49619 [1, 8]: 16.0 folds; MIC difference (folds) Pa27853 [2, 8]: 4.0 folds; MIC difference (folds) Sa29213 [3, 8]: 16.1 folds; MIC difference (folds) PaK2376 [4, 8]: 4.0 folds
14 | NC1CCN(c2ccc3c(=O)c(C(=O)O)cn([C@@H]4C[C@@H]4F)c3c2Cl)CC1 [Compound 15] | 0.063 (≈ 0.166 µM) | 0.25 (≈ 0.658 µM) | 0.063 (≈ 0.166 µM) | 8 (≈ 21.1 µM) | 
15 | CCC[C@@H]1CCN(c2ccc3c(=O)c(C(=O)O)cn([C@@H]4C[C@@H]4F)c3c2OC)C[C@H]1N [Compound 3] | 0.031 (≈ 0.0743 µM) | 2 (≈ 4.79 µM) | 0.031 (≈ 0.0743 µM) | 4 (≈ 9.58 µM) | 
16 | CC[C@@H]1CCN(c2ccc3c(=O)c(C(=O)O)cn([C@@H]4C[C@@H]4F)c3c2C)C[C@H]1N [Compound 10] | 0.031 (≈ 0.08 µM) | 0.125 (≈ 0.323 µM) | 0.031 (≈ 0.08 µM) | 0.5 (≈ 1.29 µM) | 
17 | COc1c(N2CCC(N)C2)ccc2c(=O)c(C(=O)O)cn(C3CC3F)c12 (stereo not shown) [C2, reference compound] |  |  |  |  | MIC difference (folds) Sp49619 [1, 9]: 15.9 folds; MIC difference (folds) Pa27853 [2, 9]: 1.0 folds; MIC difference (folds) Sa29213 [3, 9]: 8.0 folds; MIC difference (folds) PaK2376 [4, 9]: 1.0 folds
18 | C[C@H]1C[C@H](N)CN(c2ccc3c(=O)c(C(=O)O)cn([C@@H]4C[C@@H]4F)c3c2Cl)C1 [Compound 11] | 0.25 (≈ 0.635 µM) | 2 (≈ 5.08 µM) | 0.031 (≈ 0.0787 µM) | 4 (≈ 10.2 µM) | 
19 | Cc1c(N2CCC[C@H](N)C2)ccc2c(=O)c(C(=O)O)cn([C@@H]3C[C@@H]3F)c12 [Compound 9] | 0.031 (≈ 0.0863 µM) | 0.5 (≈ 1.39 µM) | 0.031 (≈ 0.0863 µM) | 2 (≈ 5.56 µM) | 
20 | CCC1CCN(c2ccc3c(=O)c(C(=O)O)cn(CC(F)F)c3c2Cl)CC1N (stereo not shown) [E1, reference compound] |  |  |  |  | MIC difference (folds) Sp49619 [1, 10]: 15.6 folds; MIC difference (folds) Pa27853 [2, 10]: 8.0 folds; MIC difference (folds) Sa29213 [3, 10]: 1.0 folds; MIC difference (folds) PaK2376 [4, 10]: 8.0 folds
21 | CCC1CCN(c2ccc3c(=O)c(C(=O)O)cn(CC(F)F)c3c2OC)CC1N (stereo not shown) [B3, reference compound] |  |  |  |  | MIC difference (folds) Sp49619 [1, 5]: 8.1 folds; MIC difference (folds) Pa27853 [2, 5]: 4.0 folds; MIC difference (folds) Sa29213 [3, 5]: 1.0 folds; MIC difference (folds) PaK2376 [4, 5]: 8.0 folds
22 | COc1c(N2CC[C@H](N)C2)ccc2c(=O)c(C(=O)O)cn(C(C)CF)c12 (stereo partly shown) [C3, reference compound] |  |  |  |  | MIC difference (folds) Sp49619 [1, 9]: 508.0 folds; MIC difference (folds) Pa27853 [2, 9]: 16.0 folds; MIC difference (folds) Sa29213 [3, 9]: 127.0 folds; MIC difference (folds) PaK2376 [4, 9]: 4.0 folds
23 | Cc1c(N2C[C@@H](C)C[C@H](N)C2)ccc2c(=O)c(C(=O)O)cn([C@@H]3C[C@@H]3F)c12 [Compound 12] | 0.125 (≈ 0.335 µM) | 1 (≈ 2.68 µM) | 0.063 (≈ 0.169 µM) | 4 (≈ 10.7 µM) | 
24 | COc1c(N2CC[C@H](N)C2)ccc2c(=O)c(C(=O)O)cn(C3CC3)c12 [C1, reference compound] |  |  |  |  | MIC difference (folds) Sp49619 [1, 9]: 8.0 folds; MIC difference (folds) Sa29213 [3, 9]: 4.0 folds
25 | CC1CC(N)CN(c2ccc3c(=O)c(C(=O)O)cn(C4CC4)c3c2Cl)C1 (stereo not shown) [F1, reference compound] |  |  |  |  | MIC difference (folds) Sp49619 [1, 8]: 2.0 folds; MIC difference (folds) Pa27853 [2, 8]: 2.0 folds; MIC difference (folds) Sa29213 [3, 8]: 1.0 folds; MIC difference (folds) PaK2376 [4, 8]: 1.0 folds
26 | COc1c(N2CC(C)C(N)C2)ccc2c(=O)c(C(=O)O)cn(C3CC3)c12 (stereo not shown) [A1, reference compound] |  |  |  |  | MIC difference (folds) Sp49619 [1, 7]: 64.5 folds; MIC difference (folds) Sa29213 [3, 7]: 16.1 folds
